Reference: US20020198127A1, “Liquid cleaning compositions and their use” (Unilever Home & Personal Care USA, Division of Conopco, Inc., priority 2001, published 2002)

System: protease enzyme
Assay: % residual activity (RA) of the protease enzyme in liquid detergent composition after storage at 37° C.
Assay type: biochemical
Settings: for Avg. RA (%): 37° C.; for protease stability versus control, in words: Examples 1-3, storage at 37° C. up to 56 days
Protocol: All catalysts dosed at 0.1% by weight on tope of the composition except complex G. This catalyst was dosed at 0.06 weight %.
In all cases, the pH of the composition was 7.2.
The % residual activity (RA) of the protease enzyme after storage at 37° C. was measured up to 56 days for the compositions of Examples 1-4 alone (controls), for the same compositions with 0.1% by weight of the complex B added and the same compositions with only the free ligand A added on top of the formulation (on a mole equivalent basis of the amount of the ligand in 0.1% by weight of complex B).
In Examples 4-9, 11 and 12, the pH of the composition was 7.2.
In Example 10, the pH of the composition was 8.0.

In the case of CC(c1ccccn1)(c1ccccn1)N(Cc1ccccn1)Cc1ccccn1.O.O.[Cl-].[Cl-].[Fe+2] [Complex B, [Fe(MeN4py)Cl]Cl.2H20], the “Avg. RA (%)” value (Ex. 1 composition pH 7.2, +0.1% Complex B, day 0) is reported as 100.0%, the “Avg. RA (%)” value (Ex. 1 composition pH 7.2, +0.1% Complex B, day 3) is reported as 93.7% and the “Avg. RA (%)” value (Ex. 1 composition pH 7.2, +0.1% Complex B, day 7) is reported as 84.1%. For the same compound, the “Avg. RA (%)” value (Ex. 1 composition pH 7.2, +0.1% Complex B, day 14) was 93.9%, the “Avg. RA (%)” value (Ex. 1 composition pH 7.2, +0.1% Complex B, day 28) was 79.0% and the “Avg. RA (%)” value (Ex. 1 composition pH 7.2, +0.1% Complex B, day 56) was 71.3%. For the same compound, the “Avg. RA (%)” value (Ex. 2 composition pH 7.2, +0.1% Complex B, day 0) was 100.0%, the “Avg. RA (%)” value (Ex. 2 composition pH 7.2, +0.1% Complex B, day 3) was 92.2% and the “Avg. RA (%)” value (Ex. 2 composition pH 7.2, +0.1% Complex B, day 7) was 87.1%. The “Avg. RA (%)” value (Ex. 2 composition pH 7.2, +0.1% Complex B, day 14) was 80.4%, the “Avg. RA (%)” value (Ex. 2 composition pH 7.2, +0.1% Complex B, day 28) was 89.7% and the “Avg. RA (%)” value (Ex. 2 composition pH 7.2, +0.1% Complex B, day 56) was 75.4%. For the same compound, the “Avg. RA (%)” value (Ex. 3 composition pH 7.2, +0.1% Complex B, day 0) was 100.0%, the “Avg. RA (%)” value (Ex. 3 composition pH 7.2, +0.1% Complex B, day 3) was 79.0% and the “Avg. RA (%)” value (Ex. 3 composition pH 7.2, +0.1% Complex B, day 7) was 74.0%. The “Avg. RA (%)” value (Ex. 3 composition pH 7.2, +0.1% Complex B, day 14) was 64.9%, the “Avg. RA (%)” value (Ex. 3 composition pH 7.2, +0.1% Complex B, day 28) was 59.8% and the “Avg. RA (%)” value (Ex. 3 composition pH 7.2, +0.1% Complex B, day 56) was 48.7%. The “Avg. RA (%)” value (Example 4 composition (with sorbitol) pH 7.2, +0.1% Complex B, day 0) was 100.0%, the “Avg. RA (%)” value (Example 4 composition (with sorbitol) pH 7.2, +0.1% Complex B, day 7) was 98% and the “Avg. RA (%)” value (Example 4 composition (with sorbitol) pH 7.2, +0.1% Complex B, day 14) was 97%. For the same compound, the “Avg. RA (%)” value (Example 4 composition (with sorbitol) pH 7.2, +0.1% Complex B, day 28) was 92%, the “Avg. RA (%)” value (Example 10 composition pH 8.0, +0.1% Complex B, day 0) was 100.0% and the “Avg. RA (%)” value (Example 10 composition pH 8.0, +0.1% Complex B, day 3) was 92%. The “Avg. RA (%)” value (Example 10 composition pH 8.0, +0.1% Complex B, day 7) was 91%, the “Avg. RA (%)” value (Example 10 composition pH 8.0, +0.1% Complex B, day 14) was 86% and the “Avg. RA (%)” value (Example 10 composition pH 8.0, +0.1% Complex B, day 28) was 83%. For the same compound, the “protease stability versus control, in words” value was “improvement in stability”.

F[P-](F)(F)(F)(F)F.F[P-](F)(F)(F)(F)F.[Fe+2].c1ccc(CN(CCN(Cc2ccccn2)Cc2ccccn2)Cc2ccccn2)nc1 [Complex G, [Fe(tpen)] (PF6)2] was tested, and the “Avg. RA (%)” value (Example 8 composition pH 7.2, +0.06% Complex G, day 0) was 100.0%, the “Avg. RA (%)” value (Example 8 composition pH 7.2, +0.06% Complex G, day 7) was 97% and the “Avg. RA (%)” value (Example 8 composition pH 7.2, +0.06% Complex G, day 14) was 89%. For the same compound, the “Avg. RA (%)” value (Example 8 composition pH 7.2, +0.06% Complex G, day 28) was 77%.

For COC(=O)C12CN(Cc3ccccn3)CC(C(=O)OC)(C1=O)C(c1ccccn1)N(C)C2c1ccccn1.O.[Cl][Fe][Cl] (stereo not drawn) [Complex H, Chloro(dimethyl 2,4-di-(2-pyridyl)-3-methyl-7-(pyridin-2-ylmethyl)-3,7-diaza-bicyclo[3.3.1]nonan-9-one-1,5-dicarboxylate)iron(II)-chloride hydrate], the “Avg. RA (%)” value (Example 9 composition pH 7.2, +0.1% Complex H, day 0) was 100.0%, the “Avg. RA (%)” value (Example 9 composition pH 7.2, +0.1% Complex H, day 7) was 93% and the “Avg. RA (%)” value (Example 9 composition pH 7.2, +0.1% Complex H, day 14) was 91%. For the same compound, the “Avg. RA (%)” value (Example 9 composition pH 7.2, +0.1% Complex H, day 28) was 88%.

For F[P-](F)(F)(F)(F)F.[Cl-].[Fe+2].c1ccc(CNCCN(Cc2ccccn2)Cc2ccccn2)nc1 [Complex D, [Fe(trispicenNH)Cl]PF6], the “Avg. RA (%)” value (Example 6 composition pH 7.2, +0.1% Complex D, day 0) was 100.0%, the “Avg. RA (%)” value (Example 6 composition pH 7.2, +0.1% Complex D, day 7) was 100% and the “Avg. RA (%)” value (Example 6 composition pH 7.2, +0.1% Complex D, day 14) was 92%. For the same compound, the “Avg. RA (%)” value (Example 6 composition pH 7.2, +0.1% Complex D, day 28) was 74%.

For CN1CCCN2CCN(C)CCCN(CC1)CC2 [Complex I, 5,12-dimethyl-1,5,8,12-tetraazabicyclo[6.6.2] hexadecane], the “Avg. RA (%)” value (Example 12 composition pH 7.2, +0.1% Complex I, day 0) was 100.0%, the “Avg. RA (%)” value (Example 12 composition pH 7.2, +0.1% Complex I, day 7) was 84% and the “Avg. RA (%)” value (Example 12 composition pH 7.2, +0.1% Complex I, day 14) was 78%. The “Avg. RA (%)” value (Example 12 composition pH 7.2, +0.1% Complex I, day 28) was 67%.

CC(c1ccccn1)(c1ccccn1)N(Cc1ccccn1)Cc1ccccn1 [Ligand A, N,N-bis(pyridin-2-yl-methyl)-1,1-bis(pyridin-2-yl)-1-aminoethane] was tested, and the “Avg. RA (%)” value (Ex. 1 composition pH 7.2, +0.1% mole equiv. Ligand A, day 0) was 100.0%, the “Avg. RA (%)” value (Ex. 1 composition pH 7.2, +0.1% mole equiv. Ligand A, day 3) was 85.0% and the “Avg. RA (%)” value (Ex. 1 composition pH 7.2, +0.1% mole equiv. Ligand A, day 7) was 63.9%. For the same compound, the “Avg. RA (%)” value (Ex. 1 composition pH 7.2, +0.1% mole equiv. Ligand A, day 14) was 48.8%, the “Avg. RA (%)” value (Ex. 1 composition pH 7.2, +0.1% mole equiv. Ligand A, day 28) was 38.0% and the “Avg. RA (%)” value (Ex. 1 composition pH 7.2, +0.1% mole equiv. Ligand A, day 56) was 18.4%. For the same compound, the “Avg. RA (%)” value (Ex. 2 composition pH 7.2, +0.1% mole equiv. Ligand A, day 0) was 100.0%, the “Avg. RA (%)” value (Ex. 2 composition pH 7.2, +0.1% mole equiv. Ligand A, day 3) was 70.7% and the “Avg. RA (%)” value (Ex. 2 composition pH 7.2, +0.1% mole equiv. Ligand A, day 7) was 63.1%. The “Avg. RA (%)” value (Ex. 2 composition pH 7.2, +0.1% mole equiv. Ligand A, day 14) was 46.9%, the “Avg. RA (%)” value (Ex. 2 composition pH 7.2, +0.1% mole equiv. Ligand A, day 28) was 29.3% and the “Avg. RA (%)” value (Ex. 2 composition pH 7.2, +0.1% mole equiv. Ligand A, day 56) was 13.0%. The “Avg. RA (%)” value (Ex. 3 composition pH 7.2, +0.1% mole equiv. Ligand A, day 0) was 100.0%, the “Avg. RA (%)” value (Ex. 3 composition pH 7.2, +0.1% mole equiv. Ligand A, day 3) was 72.0% and the “Avg. RA (%)” value (Ex. 3 composition pH 7.2, +0.1% mole equiv. Ligand A, day 7) was 53.0%. The “Avg. RA (%)” value (Ex. 3 composition pH 7.2, +0.1% mole equiv. Ligand A, day 14) was 32.3%, the “Avg. RA (%)” value (Ex. 3 composition pH 7.2, +0.1% mole equiv. Ligand A, day 28) was 18.6% and the “Avg. RA (%)” value (Ex. 3 composition pH 7.2, +0.1% mole equiv. Ligand A, day 56) was 5.2%. For the same compound, the “protease stability versus control, in words” value was “improvement in stability”.

With [Cl-].[Cl-].[Fe+2].c1ccc(CN(Cc2ccccn2)C(c2ccccn2)c2ccccn2)nc1 [Complex C] the “Avg. RA (%)” value (Example 5 composition pH 7.2, +0.1% Complex C, day 0) was 100.0%, the “Avg. RA (%)” value (Example 5 composition pH 7.2, +0.1% Complex C, day 7) was 98% and the “Avg. RA (%)” value (Example 5 composition pH 7.2, +0.1% Complex C, day 14) was 91%. The “Avg. RA (%)” value (Example 5 composition pH 7.2, +0.1% Complex C, day 28) was 78%.

CN1CCN(C)CCN(C)CC1.CN1CCN(C)CCN(C)CC1.F[P-](F)(F)(F)(F)F.F[P-](F)(F)(F)(F)F.[Mn+4].[Mn+4].[O-2].[O-2].[O-2] [Complex E, [Mn2(1,4,7-trimethyl-1,4,7-triazacyclononane)2(μ-O)3] (PF6)2] was tested, and the “Avg. RA (%)” value (Example 7 composition pH 7.2, +0.1% Complex E, day 0) was 100.0%, the “Avg. RA (%)” value (Example 7 composition pH 7.2, +0.1% Complex E, day 7) was 93% and the “Avg. RA (%)” value (Example 7 composition pH 7.2, +0.1% Complex E, day 14) was 87%. The “Avg. RA (%)” value (Example 7 composition pH 7.2, +0.1% Complex E, day 28) was 80%.

In the case of c1ccc(CN(CCN(Cc2ccccn2)Cc2ccccn2)Cc2ccccn2)nc1 [Ligand F, N,N,N′,N′-tetrakis(pyridin-2ylmethyl)ethylenediamine], the “Avg. RA (%)” value (Example 11 composition pH 7.2, +0.1% Ligand F, day 0) is reported as 100.0%, the “Avg. RA (%)” value (Example 11 composition pH 7.2, +0.1% Ligand F, day 7) is reported as 85% and the “Avg. RA (%)” value (Example 11 composition pH 7.2, +0.1% Ligand F, day 14) is reported as 76%. For the same compound, the “Avg. RA (%)” value (Example 11 composition pH 7.2, +0.1% Ligand F, day 28) was 63%.
